# In US11331299B2, “Medicinal use of serrulatane diterpenes” (The University of Sydney, priority 2016, dated 2022):
# Read-outs that look alike come from different tables or passages of the source.
# System: 280 human cancer cell lines
# Test: OncoPanel cell proliferation assay (10-day)
# Type: cell-based
# Conditions: Homo sapiens; for GI50: read-out: Cell Count GI50; for IC50: read-out: Cell Count IC50; for EC50: read-out: Cell Count EC50
# [1] = SJRH30, SJRH30, Soft Tissue - Sarcoma
# [2] = SJSA-1, SJSA1, Soft Tissue - Osteosarcoma
# [3] = SK-LMS-1, SK-LMS-1, Soft Tissue - Sarcoma
# [4] = SK-MEL3, SK-MEL-3, Skin (Melanoma)
# [5] = SK-MEL-1, SK-MEL-1, Skin (Melanoma)
# [6] = SK-MEL-28, SK-MEL-28, Skin (Melanoma)
# [7] = SK-OV-3, SKOV3, Female GU - Ovary
# [8] = SK-UT-1, SK-UT-1, Soft Tissue - Sarcoma
# [9] = SW579, SW579, Endocrine - Thyroid
# [10] = SW684, SW684, Soft Tissue - Sarcoma
compound,measurement,setting,value
"CC(C)=CCC[C@H](CO)[C@@H]1CC[C@@H](C)c2c1cc(C)c(O)c2O [Compound 1, 7,8,18-trihydroxyserrulat-14-ene]",GI50,"SH-4, Skin (Melanoma)",1940 nM
same,IC50,"SH-4, Skin (Melanoma)",1950 nM
same,EC50,"SHP77, SHP-77, Lung - SCLC",890 nM
same,GI50,"SHP77, SHP-77, Lung - SCLC",890 nM
same,IC50,"SHP77, SHP-77, Lung - SCLC",900 nM
same,EC50,[1],1420 nM
same,GI50,[1],1410 nM
same,IC50,[1],1420 nM
same,EC50,[2],1410 nM
same,GI50,[2],1410 nM
same,IC50,[2],1410 nM
same,EC50,"SK-BR-3, SK-BR-3, Breast",1790 nM
same,GI50,"SK-BR-3, SK-BR-3, Breast",1760 nM
same,IC50,"SK-BR-3, SK-BR-3, Breast",1800 nM
same,EC50,[3],1570 nM
same,GI50,[3],1560 nM
same,IC50,[3],1570 nM
same,EC50,[4],4370 nM
same,GI50,[4],4280 nM
same,IC50,[4],4380 nM
same,EC50,[5],4290 nM
same,GI50,[5],4110 nM
same,IC50,[5],4410 nM
same,EC50,[6],1540 nM
same,GI50,[6],1530 nM
same,IC50,[6],1540 nM
same,EC50,"SK-MES-1, SKMES1, Lung - NSCLC",1060 nM
same,GI50,"SK-MES-1, SKMES1, Lung - NSCLC",1060 nM
same,IC50,"SK-MES-1, SKMES1, Lung - NSCLC",1060 nM
same,EC50,"SK-N-AS, CNS - Neuroblastoma",3580 nM
same,GI50,"SK-N-AS, CNS - Neuroblastoma",3540 nM
same,IC50,"SK-N-AS, CNS - Neuroblastoma",3580 nM
same,EC50,"SK-N-DZ, CNS - Neuroblastoma",3160 nM
same,GI50,"SK-N-DZ, CNS - Neuroblastoma",2940 nM
same,IC50,"SK-N-DZ, CNS - Neuroblastoma",3160 nM
same,EC50,"SK-N-FI, CNS - Neuroblastoma",7310 nM
same,GI50,"SK-N-FI, CNS - Neuroblastoma",6320 nM
same,IC50,"SK-N-FI, CNS - Neuroblastoma",7310 nM
same,EC50,[7],1580 nM
same,GI50,[7],1560 nM
same,IC50,[7],1580 nM
same,EC50,"SK-PN-DW, Stomach",4660 nM
same,GI50,"SK-PN-DW, Stomach",4630 nM
same,IC50,"SK-PN-DW, Stomach",4660 nM
same,EC50,[8],2230 nM
same,GI50,[8],2220 nM
same,IC50,[8],2230 nM
same,EC50,"SKO-007, SKO-007, Myeloma",990 nM
same,GI50,"SKO-007, SKO-007, Myeloma",930 nM
same,IC50,"SKO-007, SKO-007, Myeloma",990 nM
same,EC50,"SNB-19, SNB-19, CNS - Glioma",1660 nM
same,GI50,"SNB-19, SNB-19, CNS - Glioma",1650 nM
same,IC50,"SNB-19, SNB-19, CNS - Glioma",1660 nM
same,EC50,"SNU1, SNU-1, Stomach",1250 nM
same,GI50,"SNU1, SNU-1, Stomach",1250 nM
same,IC50,"SNU1, SNU-1, Stomach",1250 nM
same,EC50,"SNU-5, SNU-5, Stomach",3920 nM
same,GI50,"SNU-5, SNU-5, Stomach",3870 nM
same,IC50,"SNU-5, SNU-5, Stomach",3920 nM
same,EC50,"SNU-16, SNU-16, Stomach",1310 nM
same,GI50,"SNU-16, SNU-16, Stomach",1310 nM
same,IC50,"SNU-16, SNU-16, Stomach",1310 nM
same,EC50,"SNU-423, SNU-423, Liver",1480 nM
same,GI50,"SNU-423, SNU-423, Liver",1460 nM
same,IC50,"SNU-423, SNU-423, Liver",1490 nM
same,EC50,"SR, Lymphoma",3800 nM
same,GI50,"SR, Lymphoma",3800 nM
same,IC50,"SR, Lymphoma",3800 nM
same,EC50,"ST486, ST486, Lymphoma",1090 nM
same,GI50,"ST486, ST486, Lymphoma",1080 nM
same,IC50,"ST486, ST486, Lymphoma",1090 nM
same,EC50,"SU-DHL10, SU-DHL-10, Lymphoma",3940 nM
same,GI50,"SU-DHL10, SU-DHL-10, Lymphoma",3930 nM
same,IC50,"SU-DHL10, SU-DHL-10, Lymphoma",3940 nM
same,EC50,"SU-DHL-4, SU-DHL-4, Lymphoma",2010 nM
same,GI50,"SU-DHL-4, SU-DHL-4, Lymphoma",2010 nM
same,IC50,"SU-DHL-4, SU-DHL-4, Lymphoma",2010 nM
same,EC50,"SU-DHL-5, SU-DHL-5, Lymphoma",1200 nM
same,GI50,"SU-DHL-5, SU-DHL-5, Lymphoma",1190 nM
same,IC50,"SU-DHL-5, SU-DHL-5, Lymphoma",1200 nM
same,EC50,"SU-DHL-8, SU-DHL-8, Lymphoma",1770 nM
same,GI50,"SU-DHL-8, SU-DHL-8, Lymphoma",1770 nM
same,IC50,"SU-DHL-8, SU-DHL-8, Lymphoma",1770 nM
same,EC50,"SU.86.86, SU.86.86, Pancreas",7610 nM
same,GI50,"SU.86.86, SU.86.86, Pancreas",7580 nM
same,IC50,"SU.86.86, SU.86.86, Pancreas",7630 nM
same,EC50,"SUP-T1, SUP-T1, Lymphoma",3960 nM
same,GI50,"SUP-T1, SUP-T1, Lymphoma",3950 nM
same,IC50,"SUP-T1, SUP-T1, Lymphoma",3960 nM
same,EC50,"SW48, SW48, Colon",1330 nM
same,GI50,"SW48, SW48, Colon",1320 nM
same,IC50,"SW48, SW48, Colon",1330 nM
same,EC50,[9],1710 nM
same,GI50,[9],1690 nM
same,IC50,[9],1710 nM
same,EC50,[10],9370 nM
same,GI50,[10],8280 nM
same,IC50,[10],9370 nM
same,EC50,"SW837, SW837, Colon",2350 nM
same,GI50,"SW837, SW837, Colon",2330 nM
same,IC50,"SW837, SW837, Colon",2370 nM
